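The compound was tested at five concentrations on cells cultured in 96-well plates, with a 48-hour exposure period. At the GI50, growth is halved. At the TGI there is no net growth.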
Key:
Test in all cases: growth of human tumour cells (NCI), 48 h
786-0 renal = test system: 786-0 renal
HCT-116 colon = test system: HCT-116 colon
K-562 leukemia = test system: K-562 leukemia
KM12 colon = test system: KM12 colon
MDA-N = test system: MDA-N
NCI-H226 lung = test system: NCI-H226 lung
OVCAR-3 ovarian = test system: OVCAR-3 ovarian
RPMI-8226 leukemia = test system: RPMI-8226 leukemia
SF-539 CNS = test system: SF-539 CNS
UACC-257 melanoma = test system: UACC-257 melanoma

In the case of CC(C)(C)OC[C@H](O)CC#N, the TGI (786-0 renal) is reported as > 100 µM, the TGI (HCT-116 colon) is reported as > 100 µM and the TGI (K-562 leukemia) is reported as > 100 µM. For the same compound, the TGI (KM12 colon) was > 100 µM, the TGI (MDA-N) was > 100 µM and the TGI (NCI-H226 lung) was > 100 µM. The TGI (OVCAR-3 ovarian) was > 100 µM, the TGI (RPMI-8226 leukemia) was > 100 µM and the TGI (SF-539 CNS) was > 100 µM. For the same compound, the TGI (UACC-257 melanoma) was > 100 µM.

In the case of Cc1ccc(S(=O)(=O)c2c(O)c3ccccc3n(C)c2=O)cc1, the TGI (786-0 renal) is reported as > 100 µM, the TGI (HCT-116 colon) is reported as > 100 µM and the TGI (K-562 leukemia) is reported as > 100 µM. For the same compound, the TGI (KM12 colon) was > 100 µM, the TGI (MDA-N) was > 100 µM and the TGI (NCI-H226 lung) was > 100 µM. For the same compound, the TGI (OVCAR-3 ovarian) was > 100 µM, the TGI (RPMI-8226 leukemia) was > 100 µM and the TGI (SF-539 CNS) was > 100 µM. For the same compound, the TGI (UACC-257 melanoma) was > 100 µM.

In the case of CSc1cc(N)ccc1N=Nc1ccc(S(N)(=O)=O)cc1, the TGI (786-0 renal) is reported as 76.8 µM, the TGI (HCT-116 colon) is reported as > 100 µM and the TGI (K-562 leukemia) is reported as > 100 µM. The TGI (KM12 colon) was 92.2 µM, the TGI (MDA-N) was > 100 µM and the TGI (NCI-H226 lung) was 50.4 µM. The TGI (OVCAR-3 ovarian) was 68.5 µM, the TGI (RPMI-8226 leukemia) was 38.4 µM and the TGI (SF-539 CNS) was 93.7 µM. The TGI (UACC-257 melanoma) was > 100 µM.

In the case of COC(=O)[C@@]12CCCC(=O)[C@@H]1[C@H]1CCCC[C@H]12, the TGI (786-0 renal) is reported as > 100 µM, the TGI (HCT-116 colon) is reported as > 100 µM and the TGI (K-562 leukemia) is reported as > 100 µM. For the same compound, the TGI (KM12 colon) was > 100 µM, the TGI (MDA-N) was > 100 µM and the TGI (NCI-H226 lung) was > 100 µM. For the same compound, the TGI (OVCAR-3 ovarian) was > 100 µM, the TGI (RPMI-8226 leukemia) was > 100 µM and the TGI (SF-539 CNS) was > 100 µM. The TGI (UACC-257 melanoma) was > 100 µM.

O=C1/C(=C2\Sc3c(ccc(Cl)c3Cl)C2=O)Sc2c1ccc(Cl)c2Cl was tested, and the TGI (786-0 renal) was > 100 µM, the TGI (HCT-116 colon) was > 100 µM and the TGI (K-562 leukemia) was > 100 µM. For the same compound, the TGI (KM12 colon) was > 100 µM, the TGI (MDA-N) was > 100 µM and the TGI (NCI-H226 lung) was > 100 µM. For the same compound, the TGI (OVCAR-3 ovarian) was > 100 µM, the TGI (RPMI-8226 leukemia) was > 100 µM and the TGI (SF-539 CNS) was > 100 µM. For the same compound, the TGI (UACC-257 melanoma) was > 100 µM.

In the case of COc1ccc2c(c1)/c(=C/c1ccc(N(C)C)cc1)c1cc(-c3ccccc3)[n+](C)n12, the TGI (786-0 renal) is reported as 1.6 µM, the TGI (HCT-116 colon) is reported as 2.59 µM and the GI50 (K-562 leukemia) is reported as 0.0487 µM. For the same compound, the TGI (KM12 colon) was 1.71 µM, the TGI (MDA-N) was 1.48 µM and the TGI (NCI-H226 lung) was 0.785 µM. For the same compound, the GI50 (RPMI-8226 leukemia) was 0.0555 µM and the TGI (UACC-257 melanoma) was 2.19 µM.

In the case of CN(Cc1cnc2nc(N)nc(N)c2n1)c1ccc(C(=O)NC(CCC(=O)NC(P(=O)(O)O)P(=O)(O)O)C(=O)O)cc1 (stereo not drawn), the TGI (786-0 renal) is reported as > 100 µM, the TGI (HCT-116 colon) is reported as > 100 µM and the TGI (K-562 leukemia) is reported as > 100 µM. The TGI (KM12 colon) was > 100 µM, the TGI (MDA-N) was > 100 µM and the TGI (NCI-H226 lung) was > 100 µM. The TGI (OVCAR-3 ovarian) was > 100 µM, the TGI (RPMI-8226 leukemia) was > 100 µM and the TGI (SF-539 CNS) was > 100 µM. For the same compound, the TGI (UACC-257 melanoma) was > 100 µM.

In the case of Cc1ccc(-c2n[nH]c(=O)[nH]2)cc1[N+](=O)[O-], the TGI (786-0 renal) is reported as > 100 µM, the TGI (HCT-116 colon) is reported as > 100 µM and the TGI (K-562 leukemia) is reported as > 100 µM. The TGI (KM12 colon) was > 100 µM, the TGI (MDA-N) was > 100 µM and the TGI (NCI-H226 lung) was > 100 µM. The TGI (OVCAR-3 ovarian) was > 100 µM, the TGI (RPMI-8226 leukemia) was > 100 µM and the TGI (SF-539 CNS) was > 100 µM. The TGI (UACC-257 melanoma) was > 100 µM.

With CC1(C)Oc2ccc(NC(=O)CCC(N)C(=O)O)cc2O1 (stereo not drawn) the TGI (786-0 renal) was > 100 µM, the TGI (HCT-116 colon) was > 100 µM and the TGI (K-562 leukemia) was > 100 µM. For the same compound, the TGI (KM12 colon) was > 100 µM, the TGI (MDA-N) was > 100 µM and the TGI (NCI-H226 lung) was > 100 µM. For the same compound, the TGI (OVCAR-3 ovarian) was > 100 µM, the TGI (RPMI-8226 leukemia) was > 100 µM and the TGI (SF-539 CNS) was > 100 µM.

CCOc1cc(C2CC(c3ccc(NS(=O)(=O)c4cc([N+](=O)[O-])ccc4C)cc3)=NN2)ccc1O (stereo not drawn) was tested, and the TGI (786-0 renal) was 67.8 µM, the TGI (HCT-116 colon) was 50.6 µM and the TGI (K-562 leukemia) was 99 µM. The TGI (MDA-N) was > 100 µM, the TGI (NCI-H226 lung) was > 100 µM and the TGI (OVCAR-3 ovarian) was 37.3 µM. For the same compound, the TGI (RPMI-8226 leukemia) was > 100 µM and the TGI (SF-539 CNS) was > 100 µM.

With O=S1(=O)c2ccccc2NC(=S)CC1c1ccccc1 (stereo not drawn) the TGI (786-0 renal) was > 100 µM, the TGI (HCT-116 colon) was > 100 µM and the TGI (K-562 leukemia) was > 100 µM. The TGI (KM12 colon) was > 100 µM, the TGI (MDA-N) was > 100 µM and the TGI (NCI-H226 lung) was > 100 µM. For the same compound, the TGI (OVCAR-3 ovarian) was > 100 µM, the TGI (RPMI-8226 leukemia) was > 100 µM and the TGI (UACC-257 melanoma) was > 100 µM.

COC(=O)C1(Cc2ccccc2)Cc2ccccc2C1 was tested, and the TGI (786-0 renal) was 81.9 µM, the TGI (HCT-116 colon) was 49.8 µM and the TGI (K-562 leukemia) was 52.3 µM. For the same compound, the TGI (KM12 colon) was > 100 µM, the TGI (MDA-N) was 49.3 µM and the TGI (NCI-H226 lung) was 78.3 µM. The TGI (RPMI-8226 leukemia) was 57.9 µM, the TGI (SF-539 CNS) was > 100 µM and the TGI (UACC-257 melanoma) was 65.6 µM.

O=C1c2cccc3cccc(c23)C(=O)N1CCCNOCCONCCCN1C(=O)c2cccc3cccc(c23)C1=O was tested, and the TGI (786-0 renal) was > 100 µM, the TGI (HCT-116 colon) was > 100 µM and the TGI (K-562 leukemia) was > 100 µM. The TGI (KM12 colon) was > 100 µM, the TGI (MDA-N) was > 100 µM and the TGI (NCI-H226 lung) was > 100 µM. The TGI (OVCAR-3 ovarian) was > 100 µM, the TGI (RPMI-8226 leukemia) was 74.4 µM and the TGI (UACC-257 melanoma) was > 100 µM.

In the case of CC(C)OP(=O)(OC(C)C)C(C(C)C)N(C)/C(F)=N/C(F)(F)F (stereo not drawn), the TGI (786-0 renal) is reported as > 100 µM, the TGI (HCT-116 colon) is reported as > 100 µM and the TGI (K-562 leukemia) is reported as > 100 µM. For the same compound, the TGI (KM12 colon) was > 100 µM, the TGI (MDA-N) was > 100 µM and the TGI (NCI-H226 lung) was > 100 µM. The TGI (OVCAR-3 ovarian) was > 100 µM, the TGI (SF-539 CNS) was > 100 µM and the TGI (UACC-257 melanoma) was > 100 µM.

In the case of CN(C)CCNc1ncnc2nc(-c3ccc4ccccc4c3)[nH]c12, the TGI (786-0 renal) is reported as > 100 µM, the TGI (HCT-116 colon) is reported as > 100 µM and the TGI (K-562 leukemia) is reported as > 100 µM. The TGI (KM12 colon) was > 100 µM, the TGI (MDA-N) was > 100 µM and the TGI (NCI-H226 lung) was > 100 µM. The TGI (OVCAR-3 ovarian) was > 100 µM, the TGI (RPMI-8226 leukemia) was > 100 µM and the TGI (UACC-257 melanoma) was > 100 µM.

For COc1c(C)c(OC)c2c(c1O)[C@@H]1[C@@H]3Cc4c(OC)c(C)c(OC)c(O)c4[C@H](CNC(=O)c4cnc5ccccc5n4)N3[C@@H](C#N)[C@H](C2)N1C, the TGI (786-0 renal) was > 0.1 µM, the TGI (HCT-116 colon) was > 0.1 µM and the TGI (K-562 leukemia) was 0.018 µM. The TGI (KM12 colon) was 0.00382 µM, the TGI (MDA-N) was 0.00362 µM and the TGI (NCI-H226 lung) was 0.00622 µM. It also gave a TGI (OVCAR-3 ovarian) of 0.0168 µM, a TGI (SF-539 CNS) of 0.0104 µM and a TGI (UACC-257 melanoma) of 0.00756 µM.

C[C@]12CC[C@@H]3c4ccc(OC(=O)c5ccccc5)cc4CC[C@H]3[C@@H]1CC[C@@H]2Oc1c2ccccc2nc2ccccc12 was tested, and the TGI (786-0 renal) was 14.3 µM, the TGI (HCT-116 colon) was 18 µM and the TGI (K-562 leukemia) was 17.8 µM. The TGI (KM12 colon) was 44 µM, the TGI (MDA-N) was 11.6 µM and the TGI (NCI-H226 lung) was 48 µM. The TGI (OVCAR-3 ovarian) was 14.8 µM, the TGI (RPMI-8226 leukemia) was 18.1 µM and the TGI (UACC-257 melanoma) was 38.6 µM.
